US20030049337A1, “Composition for preventing fructose absorption” (NAGAOKA PERFUMERY CO., LTD, priority 2001, published 2003)

Tested on: Wistar SPF rats
Settings: rat, in vivo
Protocol: The subacute toxicity test by oral administration was conducted using Wistar SPF rats. That is, the rats were divided into the control group (n=7) to which the athrocytosis of the usual feed is carried out, and the eucalyptus group (n=7) to which the athrocytosis of the feed which mixed the eucalyptus extract of 1 volume % with usual feed is carried out, and bred each individually. The rats of these groups were made to carry out free ingestion of feed and the potable water.
The amount of food ingested and the amount of drinking water of rats of these groups were measured every day, and weight change was measured twice per week. The test was continued for five weeks. After the test end, by collecting blood from the heart, rats were made to die and pathological changes, malformation, etc. of each organization, such as internal organs, were confirmed after dissection.

Q: How did the “amount of cholesterol in liver vs control group” value turn out when eucalyptus extract was run?
A: significant difference was not observed

Q: And the “amount of drinking water vs control group” value?
A: significant difference was not accepted

Q: And the “amount of food ingested vs control group” value?
A: significant difference was not accepted

Q: What about the “amount of triglyceride in liver vs control group” value of the same substance?
A: significant difference was not observed

Q: What about the “weight change vs control group” value of the same substance?
A: significant difference was not accepted
